{"source": "patent US11237158B2", "about": "“Time-resolved fluorescent immunochromatographic test strip for detecting paclitaxel drugs as well as preparation method and application thereof” (BEIJING DIAGREAT BIOTEC[…]., LTD., priority 2018, dated 2022)", "data": [{"system": "anti-PTX monoclonal antibody", "assay": "PTX analog interference test (cross reaction rate) on the time-resolved fluorescent immunochromatographic test strip", "type": "binding, mouse", "conditions": "test concentration 100 ng/mL", "method": "(§1) 20 ul of sample is accurately pipetted into 180 ul of sample diluent and mixed fully.\n(§2) 80 uL of sample solution to be tested is accurately pipetted into a test strip loading well with a micropipette, and reaction is carried out at room temperature (20-25° C.) for 15 min. The test strip is inserted into a load carrier of a fluorescence detector, an item to be tested is selected by touching a display screen, a “Detection Start” button is pressed, the fluorescence detector automatically scans the test strip, and a test result is read through the display screen of an instrument or printed.\n(§3) Quantitative detection: after the test is completed, the instrument obtains the ratio of the time-resolved fluorescent intensity of the detection area on the test strip to the time-resolved fluorescent intensity of the quality control area. Based on a relationship curve of the ratio of the time-resolved fluorescent intensity of the detection area on the pre-built test strip to the time-resolved fluorescent intensity of the quality control area and the concentration of PTX drugs, the content of PTX drug in the sample to be tested is obtained, and finally, the content of the PTX drug in the sample to be tested is obtained by conversion.\n(§4) The cross reaction rate is measured according to the method of Embodiment 2.\n(§5) Several analogs of PTX are selected for interference testing.", "units": {"Cross reaction rate": "%"}, "values": [{"smiles": "CC(=O)O[C@H]1C(=O)[C@@]2(C)[C@H]([C@H](OC(=O)c3ccccc3)[C@]3(O)C[C@H](OC(=O)[C@H](O)[C@@H](NC(=O)c4ccccc4)c4ccccc4)C(C)=C1C3(C)C)[C@]1(OC(C)=O)CO[C@@H]1C[C@@H]2O", "note": "[Paclitaxel]", "Cross reaction rate": 100}]}, {"system": "anti-PTX monoclonal antibody", "assay": "PTX analog interference test (cross reaction rate) on the time-resolved fluorescent immunochromatographic test strip", "type": "binding, mouse", "conditions": "test concentration 1,000 ng/mL", "method": "as §1, §2, §3, §4, §5", "units": {"Cross reaction rate": "%"}, "values": [{"smiles": "CC(=O)OC1CC2(OC(C)=O)C(OC(C)=O)C3C4(CO4)C(O)CC(OC(C)=O)C3(C)C(OC(C)=O)C(OC(C)=O)C(=C1C)C2(C)C", "note": "(stereo not drawn) [1-Acetoxyl-5-deacetyl-baccatin I]", "Cross reaction rate": "<0.01"}, {"smiles": "CC(=O)O[C@H]1C[C@@]2(O)[C@@H](OC(C)=O)[C@@H]3[C@@]4(CO4)[C@@H](OC(C)=O)C[C@H](OC(C)=O)[C@@]3(C)[C@@H](OC(C)=O)[C@H](OC(C)=O)C(=C1C)C2(C)C", "note": "[1-Hydroxybaccatin I]", "Cross reaction rate": "<0.01"}, {"smiles": "CC(=O)O[C@H]1C(=O)[C@]2(C)[C@@H](O[C@@H]3OC[C@@H](O)[C@H](O)[C@H]3O)C[C@H]3OC[C@@]3(OC(C)=O)[C@H]2[C@H](OC(=O)c2ccccc2)[C@]2(O)C[C@H](OC(=O)[C@H](O)[C@@H](NC(=O)c3ccccc3)c3ccccc3)C(C)=C1C2(C)C", "note": "[7-Xylosyltaxol]", "Cross reaction rate": "<1"}, {"smiles": "CC(=O)O[C@@]12CO[C@@H]1C[C@H](O)[C@@]1(C)C(=O)[C@H](O)C3=C(C)[C@@H](O)C[C@@](O)([C@@H](OC(=O)c4ccccc4)[C@H]21)C3(C)C", "note": "[10-Deacetyl-baccatin III]", "Cross reaction rate": "<0.01"}, {"smiles": "CC(=O)OC1CC2(O)C(OC(=O)c3ccccc3)C3C4(OC(C)=O)COC4CC(O)C3(C)C(O)C(OC(C)=O)C(=C1C)C2(C)C", "note": "(stereo not drawn) [13-Acetyl-9-dihydrobaccatin III]", "Cross reaction rate": "<0.01"}, {"smiles": "CC(=O)O[C@H]1C(=O)[C@@]2(C)[C@H]([C@H](OC(=O)c3ccccc3)[C@]3(O)C[C@H](O)C(C)=C1C3(C)C)[C@]1(OC(C)=O)CO[C@@H]1C[C@@H]2O", "note": "[Baccatin III]", "Cross reaction rate": "<0.01"}, {"smiles": "C/C=C(\\C)C(=O)N[C@@H](c1ccccc1)[C@@H](O)C(=O)O[C@H]1C[C@@]2(O)[C@@H](OC(=O)c3ccccc3)[C@@H]3[C@]4(OC(C)=O)CO[C@@H]4C[C@H](O)[C@@]3(C)C(=O)[C@H](OC(C)=O)C(=C1C)C2(C)C", "note": "[Cephalomannine]", "Cross reaction rate": "<0.04"}, {"smiles": "CC(=O)O[C@@]12CO[C@@H]1C[C@H](O)[C@@]1(C)C(=O)[C@H](O)C3=C(C)[C@@H](OC(=O)[C@H](O)[C@@H](NC(=O)OC(C)(C)C)c4ccccc4)C[C@@](O)([C@@H](OC(=O)c4ccccc4)[C@H]21)C3(C)C", "note": "[Docetaxel]", "Cross reaction rate": "<1"}]}]}
